Experimental data as given in publication PMC12508057, “Discovery of ETI41 and ETI60: novel selective endosomal Toll-like receptor inhibitors for the treatment of autoimmune diseases” (Experimental & Molecular Medicine, 2025).
Where two headings read alike, the source gives them in different places.

How the values were obtained:
Daudi cells = assay: Water-soluble tetrazolium assay, cell viability in Daudi; type: cell-based
Description: Daudi cells were seeded into 96-well plates at a density of 5 × 10^4 cells per well.
One-tailed paired Student’s t-tests were performed using Microsoft Excel (Microsoft). […] The therapeutic index was calculated as […]. Animal experimental results are expressed as mean ± standard deviation and analyzed using SPSS v.20 (IBM SPSS Statistics). Homogeneity of variance was assessed using Levene’s test.
Data are from at least three independent experiments (n = 3) and statistical differences between the induced case and other cases were analyzed and verified using a one-tailed Student’s t-test (*P < 0.05, **P < 0.01, ***P < 0.001).

[1] = test system: IMQ-induced (TLR7) gene expression in RAW 264.7 cells; assay: 3' mRNA sequencing of IMQ-stimulated RAW 264.7 cells; type: cell-based, mouse; details: for Expression of IMQ-induced inflammation-associated genes: RAW 264.7, 2 and 4 h; for Differentially expressed genes (DEGs) / Downregulated DEGs / Upregulated DEGs: RAW 264.7, IMQ-stimulated
Description: RNA quality was assessed using a TapeStation 4000 system (Agilent Technologies). Libraries were prepared using a QuantSeq 3 mRNA-Seq Library Prep Kit FWD (Lexogen) and sequenced using a NextSeq 550 System (Illumina). Sequences were trimmed using BBDuk and aligned with Bowtie2, and the reads were counted using Bedtools[21]–[23]. Data were normalized using edgeR software (Ebiogen) and analyzed for gene function using the Database for Annotation, Visualization, and Integrated Discovery) and for pathway analysis using KEGG Mapper[24],[25]. RNA-seq data were deposited in the Gene Expression Omnibus database under accession number GSE255890.
Fig. 2 ETI41 and ETI60 inhibit TLR7- and TLR9-dependent downstream signaling. a, b Western blot analysis was used to quantify the protein levels of phosphorylated p-ERK, p-JNK, p38, Iκ-Bα and p65. RAW 264.7 cells were treated with 5 μM or 10 μM of ETI41 or ETI60, followed by exposure to IMQ (2 μg/ml) for 20 or 30 min (a) and ODN2395 (1 μM) for 40 or 50 min (b) respectively. β-Actin served as a loading control for the cytosol, while lamin A/C was utilized as a loading control for the nucleus. c Protein levels of IRF7 were measured after treatment with 5 μM of ETI41 or ETI60, followed by treatment with ODN2395 (1 μM) for 6 or 8 h. d BMDC cells from ex vivo were used to analyze mRNA expression levels of IL-12p40, IFN-β and CD40. Cells were pretreated with ETI41 (0.2 and 1 μM), followed by treatment with ODN2395 (1 μM) for 3 h. All experiments were independently conducted three times. Statistical differences between the induced and other cases were analyzed and verified using a one-tailed Student’s t-test (*P < 0.05, **P < 0.01, ***P < 0.001). e–g The TLR7 agonist IMQ (1 μM) was used in 3’ RNA-seq analysis to induce signaling associated with immune responses in RAW 264.7 cells. […] (e–g) depict changes in gene expression categories without pretreatment (e) after pretreatment with ETI41 (f) or after pretreatment with ETI60 (g) followed by IMQ stimulation. h Heatmaps depicting gene expression patterns within the inflammation and immune response categories (fold change >2.5, P < 0.05) of ETI41 or ETI60, dividing the time after IMQ treatment into 0, 2 and 4 h, respectively. […]

human TLR7 = target: T1, human TLR7 (Homo sapiens, UniProt Q9NYK1); assay: SPR binding to TLR7; details: for SPR binding to TLR7: neutral pH 7.4 (early endosome)
T1 construct: Fc; purchased R&D Systems
T1 sequence (Q9NYK1 27-839 limits assumed): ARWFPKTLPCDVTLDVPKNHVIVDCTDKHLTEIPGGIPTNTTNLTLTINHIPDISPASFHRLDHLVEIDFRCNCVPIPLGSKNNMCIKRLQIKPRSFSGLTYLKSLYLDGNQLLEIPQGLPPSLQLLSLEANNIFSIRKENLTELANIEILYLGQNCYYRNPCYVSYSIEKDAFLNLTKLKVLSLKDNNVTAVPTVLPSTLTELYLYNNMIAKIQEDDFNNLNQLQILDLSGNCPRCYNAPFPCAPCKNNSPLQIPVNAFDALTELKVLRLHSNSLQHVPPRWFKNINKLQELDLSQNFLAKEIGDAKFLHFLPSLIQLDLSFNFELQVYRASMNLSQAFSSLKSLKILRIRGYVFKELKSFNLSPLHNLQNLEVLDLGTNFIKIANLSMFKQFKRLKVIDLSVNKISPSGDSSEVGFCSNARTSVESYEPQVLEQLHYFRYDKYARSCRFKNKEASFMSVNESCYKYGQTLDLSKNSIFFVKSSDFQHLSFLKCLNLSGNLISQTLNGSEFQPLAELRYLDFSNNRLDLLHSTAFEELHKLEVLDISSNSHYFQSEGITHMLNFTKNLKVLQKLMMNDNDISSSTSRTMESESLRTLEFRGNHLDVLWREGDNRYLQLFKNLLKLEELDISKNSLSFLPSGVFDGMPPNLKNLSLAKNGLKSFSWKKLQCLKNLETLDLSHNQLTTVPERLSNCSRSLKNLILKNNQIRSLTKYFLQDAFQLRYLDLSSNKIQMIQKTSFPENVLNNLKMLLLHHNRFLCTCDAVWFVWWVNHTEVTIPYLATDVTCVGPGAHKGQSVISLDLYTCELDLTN
Description: Surface plasmon resonance (SPR) analysis was conducted using an SR7500DC SPR System (Reichert) with a CMDH chip for human TLR7 and murine TLR9 (R&D Systems) and a Biacore T200 platform (Cytiva) with a CM5 chip for TLR9–ODN binding. The running buffer contained 0.5% DMSO and phosphate-buffered saline, and 50 mM NaOH was used for regeneration. ETI series compounds were serially diluted from 500 μM and tested for binding affinity. Binding curves were analyzed using Scrubber2 and Biacore T200 evaluation softwares. The dissociation constants (KD) were calculated as KD = kd/ka.
SPR confirmed the binding mechanisms of ETI41 and ETI60 with TLR7 and TLR9, respectively, under three conditions: (a) early endosome (pH 7.4), (b) late endosome without CpG (pH 5.5) and (c) late endosome with CpG (pH 5.5). (a) Both ETI41 and ETI60 were measured for parameters indicating binding affinity, including the KD value presented in Table 3, and were further analyzed under conditions (b) and (c), depending on the presence or absence of ligand, to explain the binding mechanism occurring in TLR9.

Structure (SMILES)	Cell viability (LD50), cytotoxicity (Daudi cells)	Expression of IMQ-induced inflammation-associated genes [1]	Differentially expressed genes (DEGs) [1]	Downregulated DEGs [1]	Upregulated DEGs [1]	Kd (human TLR7) [mM]	kd (human TLR7; Fc-TLR7, pH 7.4) [s⁻¹]	SPR binding to TLR7 (human TLR7)	kon (human TLR7; pH 7.4, read-out: ka) [M⁻¹ s⁻¹]	Kd (human TLR7; Fc-TLR7, pH 7.4, read-out: KD) [mM]	kon (human TLR7; Fc-TLR7, pH 7.4, read-out: ka) [M⁻¹ s⁻¹]
Cc1cc2c(N)c3c(nc2n1CCCN(C)C)CCCCCC3 [ETI41]	>200,000 nM	markedly reduced	509	296	213	0.54	0.21	clear binding affinity	400		
COc1ccc2c3c(N)c4c(nc3n(CCCN(C)C)c2c1)CCCC4 [ETI60]	38,410 nM	markedly reduced	727	380	347		0.124	clear binding affinity		6	20
